Measured values taken from publication PMC2749490 (Bioorganic & medicinal chemistry, 2009).
Like-named read-outs stand apart in the source and are kept apart here. *1 amine or outer side, *2 acyl side, *3 side chain or, on linkers, in order; H or OH if unused. Where a SMILES comes first, the peptide text is derived from it. Bridges are numbered along the chain shown (N, C = ends). Where no end group is shown, it is not given here. [ ]: non-standard residue; d: D form. The star is where a group is joined. Staurosporine = CO[C@@H]1[C@H](N(C)*)C[C@H]2O[C@]1(C)n1c3ccccc3c3c4c(c5c6ccccc6n2c5c31)C(=O)NC4; Suc = O=C(CCC(=O)[*:2])[*:1]; Dap = NC[C@H](N)C(=O)O; βAla = NCCC(=O)O

Columns and labels:
[1] = target: T1, cAMP-dependent protein kinase (PKA) (Homo sapiens, UniProt P17612); assay: PKA inhibitor IC50 determination; assay type: biochemical
PKA [2] = target: T2, PKA (Homo sapiens, UniProt P17612); assay: PKA kinase assays in the presence of 7.5 mM DTT; assay type: biochemical
PKA [3] = target: T2, PKA; assay type: biochemical; conditions: versus Kemptide
[4] = target: T1, cAMP-dependent protein kinase (PKA); conditions: earlier proof-of-principle studies; cited from earlier work

Compound: Nc1ncnc2c1ncn2[C@@H]1O[C@H](C(=O)O)[C@@H](O)[C@H]1O [6a]
- IC50 [1]: > 1000 µM

Compound: CC(C)[C@@H]1NC(=O)[C@H](CCCNC(=N)N)NC(=O)[C@H](Cc2ccccc2)NC(=O)[C@H]([C@@H](C)O)NC(=O)[C@@H](NC(=O)CCNC(=O)CCNC(=O)CCNC(=O)CCNC(=O)CCNC(=O)CCNC(=O)CCNC(=O)[C@H]2O[C@@H](n3cnc4c(N)ncnc43)[C@H](O)[C@@H]2O)CSSC[C@@H](C(=O)NCC(N)=O)NC(=O)CNC(=O)[C@H](Cc2ccccc2)NC1=O [compound 6] (HELM PEPTIDE1{[Nc1ncnc2c1ncn2[C@@H]1O[C@H](C(=O)[*:2])[C@@H](O)[C@H]1O].[bAla].[bAla].[bAla].[bAla].[bAla].[bAla].[bAla].C.T.F.R.V.F.G.C.G.[am]}$PEPTIDE1,PEPTIDE1,9:R3-16:R3$$$V2.0)
- improvement from the adenosine derivative 6a ([1]; ratio of PKA IC50 values): > 300 fold

Compound: CO[C@@H]1[C@H](N(C)C(=O)CCC(=O)NCCC(=O)NCCC(=O)NCCC(=O)NCCC(=O)NCCC(=O)NCCC(=O)NCCC(=O)N[C@H]2CC(=O)NC[C@@H](C(=O)NCC(N)=O)NC(=O)CNC(=O)[C@H](Cc3ccccc3)NC(=O)[C@H](C(C)C)NC(=O)[C@H](CCCNC(=N)N)NC(=O)[C@H](Cc3ccccc3)NC(=O)[C@H]([C@@H](C)O)NC2=O)C[C@H]2O[C@]1(C)n1c3ccccc3c3c4c(c5c6ccccc6n2c5c31)C(=O)NC4 [compound 7] ({Staurosporine-Suc-βAla-βAla-βAla-βAla-βAla-βAla-βAla}-DTFRVFG[Dap]G-NH2; lactam 1-8)
- sensitivity to reducing conditions (PKA [2]): insensitive to reducing conditions

Compound: cyclo(CTFRVFGC)G (CTFRVFGCG; disulfide 1-8 (inferred)) [1b]
- mode of inhibition with respect to peptide substrate (best-fit model) (PKA [3]): noncompetitive

Compound: cyclo(CTFRVFGC)G [1b]
- IC50 [4]: 57 µM
